Measurements taken from paper PMC4663795, “Alkanols inhibit voltage-gated K^+ channels via a distinct gating modifying mechanism that prevents gate opening” (Scientific Reports, 2015).
Several values for one entry are separate records, joined by “and”; a condition that tells them apart may be missing. Equal values may be shown once. Read-outs that look alike come from different tables or passages of the source.

Assays:
Shaker-IR-W434F-P475A = target: T1, Shaker-IR-W434F-P475A (Drosophila melanogaster, UniProt P08510, DEL6-46/P475A/W434F); assay type: cell-based
T1 construct: expressed in transfected cells; host or cells: HEK293
T1 sequence (P08510 other isoform, or with tags, fused parts or gaps DEL6-46/W434F/P475A): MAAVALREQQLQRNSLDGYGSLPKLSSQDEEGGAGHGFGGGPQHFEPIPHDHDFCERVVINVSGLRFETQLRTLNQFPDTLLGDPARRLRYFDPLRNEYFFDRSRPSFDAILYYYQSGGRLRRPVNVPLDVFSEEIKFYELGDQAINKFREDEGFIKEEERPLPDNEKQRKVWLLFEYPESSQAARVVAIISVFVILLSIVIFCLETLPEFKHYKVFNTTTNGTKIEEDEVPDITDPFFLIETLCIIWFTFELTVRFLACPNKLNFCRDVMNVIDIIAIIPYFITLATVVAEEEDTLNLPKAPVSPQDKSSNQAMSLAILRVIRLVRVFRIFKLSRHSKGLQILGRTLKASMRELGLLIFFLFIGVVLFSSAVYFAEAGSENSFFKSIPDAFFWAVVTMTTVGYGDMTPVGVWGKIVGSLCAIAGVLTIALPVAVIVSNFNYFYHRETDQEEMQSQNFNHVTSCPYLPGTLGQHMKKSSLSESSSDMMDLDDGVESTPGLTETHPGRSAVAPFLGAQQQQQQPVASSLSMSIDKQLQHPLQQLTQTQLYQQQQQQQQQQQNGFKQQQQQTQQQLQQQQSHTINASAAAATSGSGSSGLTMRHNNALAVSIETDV
From the text: (§1) The N-terminal deletion Δ6–46 Shaker clone (Shaker-IR), which removes fast inactivation, was used in this study. The W434F mutation, which yields a non-conducting Shaker-IR-W434F channel, and the P475A mutation were introduced as described previously. All channel constructs were expressed using a pGW1 expression vector. The plasmid that codes for the green fluorescent protein, used to identify transfected cells, was purchased from Clontech (Palo Alto, CA, USA). Plasmid DNA for mammalian expression was obtained by amplification in XL2 Bluescript cells (Stratagene), and afterwards isolated using the endotoxin-free Maxiprep kit (Macherey-Nagel, Düren, Germany). The cDNA concentration was determined by UV absorption.
(§2) HEK293 cells were cultured in Modified Eagle’s Medium (MEM) supplemented with 10% fetal bovine serum, 1% penicillin/streptomycin and 1% non-essential amino acids (Invitrogen, Carlsbad, CA, USA). Cells were transiently transfected with the appropriate channel DNA plasmids using polyethyleneimine that was purchased from Sigma-Aldrich (St Louis, MO, USA), details of procedure was described previously.
(§3) Whole-cell ionic IK or gating IG current measurements were done at room temperature (20 to 23 °C) using an Axopatch-200B amplifier and the recordings were digitized with a Digidata-1200 A acquisition system (Molecular Devices, Sunnyvale, CA, USA). Both IK and IG recordings were digitized at 10 kHz sampling rate after passing a 5 KHz Bessel low-pass filter. Command voltages and data storage were controlled with pClamp10 software. Patch pipettes were pulled from 1.2 mm quick-fill borosilicate glass capillaries (World Precision Instruments, Sarasota, FL, USA) with a P-2000 puller (Sutter Instrument Co., Novato, CA, USA) and afterwards heat-polished, to have patch pipettes with a resistance of approximately 1.5 MOhm determined with the filled pipette in the bath solution.
(§4) For IK measurements the cells were constantly superfused with external bath solution that contained (in mM) NaCl 130, KCl 4, CaCl2 1.8, MgCl2 1, HEPES 10, Glucose 10, adjusted to pH 7.35 with NaOH. The patch pipettes were filled with internal solution containing (in mM) KCl 110, K4BAPTA 5, K2ATP 5, MgCl2 1, HEPES 10, adjusted to pH 7.2 with KOH. For IG measurements the monovalent cations were replaced with N-methyl-D-glucamine (NMG^+). The bath solution contained (in mM) NMG^+ 140, HEPES 10, Glucose 10, MgCl2 1, CaCl2 1.8, titrated to pH 7.35 with HCl. The pipette solution contained (in mM) NMG^+ 140, HEPES 10, EGTA 10, MgCl2 1, titrated to pH 7.2 with HCl. Junction potentials were zeroed with the filled pipette in the bath solution and experiments were excluded from analysis if the voltage error estimate exceeded 5 mV after series resistance compensation. For IG measurements, leak currents and remaining capacitive currents were subtracted online using a −P/6 protocol (using a holding potential of −95 mV). IK recordings were not leak corrected.
(§5) For the highest concentration of 1-BuOH tested (300 mM), the osmolarity of the extracellular solution for IK or IG recordings increased by approximately 300 mOsm resulting in a total osmolarity of ~640 mOsm. […] All compounds were applied to the cells using a pressurized fast perfusion system equipped with a quartz micromanifold (ALA scientific, Farmingdale, NY, USA), allowing rapid exchange of the external solutions.
(§6) Details of pulse protocols used to elicit IK or IG recordings were adjusted to determine the biophysical properties of each construct adequately and are shown in the figures or described in legends. All the graphs were built using SigmaPlot 11.0 (Systat Software Inc., San Jose, CA, USA).

Shaker-IR-W434F [1] = target: T2, Shaker-IR-W434F (Drosophila melanogaster, UniProt P08510, DEL6-46/W434F); test: cell-based; assay type: cell-based; conditions: for QV curve V1/2: voltage dependence of VSD movement; for gating charge immobilized (reduction in gating charge movement): general statement, no concentration given
T2 construct: expressed in transfected cells; host or cells: HEK293
T2 sequence (P08510 other isoform, or with tags, fused parts or gaps DEL6-46/W434F): as the sequence (P08510 other isoform, or with tags, fused parts or gaps DEL6-46/W434F/P475A) above, with A434P counted along it
From the text: as §1, §2, §3, §4, §5, §6

Shaker-IR-P475A [2] = target: T3, Shaker-IR-P475A (Drosophila melanogaster, UniProt P08510, DEL6-46/P475A); test: cell-based; assay type: cell-based; conditions: for GV curve V1/2: from tail currents; for Hill coefficient of weighted τIKac concentration-response curve / IC50: weighted τIKac at +100 mV; for IC50: read-out: IC50 of acceleration of weighted τIKac
T3 construct: expressed in transfected cells; host or cells: HEK293
T3 sequence (P08510 other isoform, or with tags, fused parts or gaps DEL6-46/P475A): as the sequence (P08510 other isoform, or with tags, fused parts or gaps DEL6-46/W434F/P475A) above, with F393W counted along it
From the text: as §1, §2, §3, §4, §5, §6

Shaker-IR channel = target: T4, Shaker-IR channel (Drosophila melanogaster, UniProt P08510, DEL6-46); test: cell-based; assay type: cell-based; conditions: for GV curve V1/2: voltage dependence of gate opening; for IC50: normalized steady-state IK amplitude at 0 mV, Hill fit, read-out: IC50 of ionic current (IK) inhibition; for Hill coefficient of IK inhibition concentration-response curve: steady-state IK at 0 mV
T4 construct: expressed in transfected cells; host or cells: HEK293
T4 sequence (P08510 other isoform, or with tags, fused parts or gaps DEL6-46): as the sequence (P08510 other isoform, or with tags, fused parts or gaps DEL6-46/W434F/P475A) above, with F393W, A434P counted along it
From the text: as §1, §2, §3, §4, §5, §6

Shaker-IR-P475A [3] = target: T3, Shaker-IR-P475A; conditions: cited from earlier work
Shaker-IR-W434F [4] = target: T2, Shaker-IR-W434F; set-up: method as in PMID 11463634; conditions: cited from earlier work
[5] = integrated steady-state IGac normalized to control, read-out: IC50 of reduction in total gating charge
[6] = weighted τIGdeac at −90 mV, read-out: IC50 of acceleration of VSD deactivation time constant (τIGdeac)

SMILES: CCCCO [1-BuOH, 1-Butanol]
- QV curve 1st comp V1/2 (Shaker-IR-W434F-P475A; 300 mM 1-BuOH): −39.2 ± 1.4 mV
- QV curve 1st comp k (Shaker-IR-W434F-P475A; 300 mM 1-BuOH): 16.2 ± 1.2 mV
- QV curve 2nd comp V1/2 (Shaker-IR-W434F-P475A; 300 mM 1-BuOH): 52.2 ± 1.2 mV
- QV curve 2nd comp k (Shaker-IR-W434F-P475A; 300 mM 1-BuOH): 9.1 ± 1.1 mV
- Hill coefficient of gating charge reduction concentration-response curve (Shaker-IR-W434F [1]): 1.5 ± 0.2
- maximal reduction in charge movement (Shaker-IR-W434F [1]; 300 mM 1-BuOH): approximately 10%
- τIGdeac at −120 mV (Shaker-IR-W434F [1]; 300 mM 1-BuOH): 0.48 ± 0.08 ms
- extra reduction of gating charge movement on addition to 4-AP (Shaker-IR-W434F [1]; 300 mM 1-BuOH in continued presence of 1 mM 4-AP): did not result in an extra reduction of gating charge movement
- QV curve V1/2 (Shaker-IR-W434F [1]; 300 mM 1-BuOH): −32.4 ± 3.4 mV
- gating charge immobilized (reduction in gating charge movement) (Shaker-IR-W434F [1]): 10%
- IC50 (Shaker-IR-W434F [1]; [5]): 88 ± 2 mM
- Hill coefficient of τIGdeac concentration-response curve (Shaker-IR-W434F [1]; weighted τIGdeac at −90 mV): 1.3 ± 0.4
- IC50 (Shaker-IR-W434F [1]; [6]): 67 ± 1 mM
- effect on IK of the P475A mutant (Shaker-IR-P475A [2]): concentration-dependent increase in IK
- GV curve slope factor k (Shaker-IR-P475A [2]; 100 mM 1-BuOH): 9.6 ± 0.4 mV
- GV curve V1/2 (Shaker-IR-P475A [2]; 100 mM 1-BuOH): 62 ± 1 mV
- GV curve slope factor k (Shaker-IR-P475A [2]; 300 mM 1-BuOH): 6.8 ± 0.7 mV
- GV curve V1/2 (Shaker-IR-P475A [2]; 300 mM 1-BuOH): 50 ± 1 mV
- Hill coefficient of weighted τIKac concentration-response curve (Shaker-IR-P475A [2]): 1.5 ± 0.4
- IC50 (Shaker-IR-P475A [2]): 58.8 ± 3 mM
- GV curve slope factor k (Shaker-IR channel; 50 mM 1-BuOH): 5.1 ± 0.7 mV
- GV curve V1/2 (Shaker-IR channel; 50 mM 1-BuOH): −28.5 ± 2.3 mV
- time constant of current recovery upon wash-out (Shaker-IR channel; after 50 mM 1-BuOH): 7.6 ± 2.1 s
- time constant of development of IK inhibition (Shaker-IR channel; application of 50 mM 1-BuOH): 5.2 ± 1.2 s
- IC50 (Shaker-IR channel): ~50 mM and 50 mM and 51.8 mM
- Hill coefficient of IK inhibition concentration-response curve (Shaker-IR channel): 0.92 ± 0.04

SMILES: CCCCCCO [1-HeOH, 1-Hexanol]
- QV curve 1st comp V1/2 (Shaker-IR-W434F-P475A; 30 mM 1-HeOH): −35.3 ± 1.5 mV
- QV curve 2nd comp V1/2 (Shaker-IR-W434F-P475A; 30 mM 1-HeOH): 50.2 ± 1.1 mV
- QV curve 2nd comp k (Shaker-IR-W434F-P475A; 30 mM 1-HeOH): 3.6 ± 1.4 mV
- Hill coefficient of gating charge reduction concentration-response curve (Shaker-IR-W434F [1]): 1.5 ± 0.2
- maximal reduction in charge movement (Shaker-IR-W434F [1]; 30 mM 1-HeOH): ~12%
- τIGdeac at −120 mV (Shaker-IR-W434F [1]; 30 mM 1-HeOH): 0.53 ± 0.10 ms
- QV curve V1/2 (Shaker-IR-W434F [1]; 30 mM 1-HeOH): −31.4 ± 0.9 mV
- gating charge immobilized (reduction in gating charge movement) (Shaker-IR-W434F [1]): 10%
- IC50 (Shaker-IR-W434F [1]; [5]): 13.8 ± 1.6 mM
- Hill coefficient of τIGdeac concentration-response curve (Shaker-IR-W434F [1]; weighted τIGdeac at −90 mV): 1.6 ± 0.3
- IC50 (Shaker-IR-W434F [1]; [6]): 3 ± 0.4 mM
- effect on IK of the P475A mutant (Shaker-IR-P475A [2]): concentration-dependent increase in IK
- GV curve slope factor k (Shaker-IR-P475A [2]; 10 mM 1-HeOH): 10.7 ± 0.6 mV
- GV curve V1/2 (Shaker-IR-P475A [2]; 10 mM 1-HeOH): 64 ± 1 mV
- GV curve slope factor k (Shaker-IR-P475A [2]; 30 mM 1-HeOH): 6.6 ± 0.6 mV
- GV curve V1/2 (Shaker-IR-P475A [2]; 30 mM 1-HeOH): 49 ± 1 mV
- Hill coefficient of weighted τIKac concentration-response curve (Shaker-IR-P475A [2]): 1.3 ± 0.3
- IC50 (Shaker-IR-P475A [2]): 4.6 ± 0.8 mM
- GV curve slope factor k (Shaker-IR channel; 3 mM 1-HeOH): 7.5 ± 0.9 mV
- GV curve V1/2 (Shaker-IR channel; 3 mM 1-HeOH): −25.4 ± 1.2 mV
- time constant of current recovery upon wash-out (Shaker-IR channel; after 3 mM 1-HeOH): 4.8 ± 1.7 s
- time constant of development of IK inhibition (Shaker-IR channel; application of 3 mM 1-HeOH): 3.7 ± 0.7 s
- IC50 (Shaker-IR channel): ~3 mM and 2.7 mM
- Hill coefficient of IK inhibition concentration-response curve (Shaker-IR channel): 1.13 ± 0.22

SMILES: Nc1ccncc1 [4-AP, 4-aminopyridine]
- sensitivity of the P475A mutant to the drug (Shaker-IR-P475A [3]): insensitive
- reduction in gating charge movement (Shaker-IR-W434F [4]): 10%
- loss of gating charge movement (Shaker-IR-W434F [1]; 1 mM 4-AP): approximately 10%
- inhibition at 30 µM (Shaker-IR channel; HEK293, read-out: steady-state IK inhibition): ~50%
